Experimental data reported in ChEMBL document CHEMBL2380242, “Discovery of novel orally bioavailable GPR40 agonists” (Bioorg Med Chem Lett, 2013).
Activity calls are given as the source filed them. The rule behind the calls is not given here.

Molecular target: T1, Free fatty acid receptor 2 (Homo sapiens) (UniProt O15552)
T1 sequence (whole entry): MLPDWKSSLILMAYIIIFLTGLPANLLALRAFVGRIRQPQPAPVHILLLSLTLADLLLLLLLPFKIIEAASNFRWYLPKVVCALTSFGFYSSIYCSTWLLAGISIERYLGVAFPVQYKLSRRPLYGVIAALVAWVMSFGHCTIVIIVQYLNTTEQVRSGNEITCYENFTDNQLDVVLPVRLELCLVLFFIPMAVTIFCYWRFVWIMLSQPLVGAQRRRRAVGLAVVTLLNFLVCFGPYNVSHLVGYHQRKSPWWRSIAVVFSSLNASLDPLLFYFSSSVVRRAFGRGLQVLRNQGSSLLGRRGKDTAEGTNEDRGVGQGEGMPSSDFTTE
Experiment: Agonist activity at GPR43 (unknown origin) up to 10 uM
Details: not given

Activity | SMILES
inactive | O=C(O)C[C@@H]1COc2cc3c(cc21)OC[C@@H](c1cccc(Cl)c1)O3

Molecular target: T2, Free fatty acid receptor 3 (Homo sapiens) (UniProt O14843)
T2 sequence (whole entry): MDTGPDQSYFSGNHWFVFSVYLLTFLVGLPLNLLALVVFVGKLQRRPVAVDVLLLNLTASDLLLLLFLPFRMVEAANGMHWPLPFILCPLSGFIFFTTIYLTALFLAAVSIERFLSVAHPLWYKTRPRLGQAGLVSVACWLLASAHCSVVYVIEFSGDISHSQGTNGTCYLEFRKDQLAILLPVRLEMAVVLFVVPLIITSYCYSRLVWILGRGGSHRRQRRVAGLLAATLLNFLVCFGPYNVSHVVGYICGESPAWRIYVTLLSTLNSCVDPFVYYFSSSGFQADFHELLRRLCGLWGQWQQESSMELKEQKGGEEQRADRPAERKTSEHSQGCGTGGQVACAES
Experiment: Agonist activity at GPR41 (unknown origin) up to 10 uM
Details: not given

Activity | SMILES
inactive | O=C(O)C[C@@H]1COc2cc3c(cc21)OC[C@@H](c1cccc(Cl)c1)O3

System: Rhesus monkey
Experiment: Antidiabetic activity in obese type 2 diabetic rhesus monkey model assessed as inhibition of blood glucose excursion at 6 mg/kg, po administered 1 to 2 hrs prior to dextrose challenge measured for 120 mins by IVGTT relative to control
Format: functional
Details: Macaca mulatta

SMILES | inhibition in vivo at 6 mg/kg
O=C(O)C[C@@H]1COc2cc3c(cc21)OC[C@@H](c1cccc(Cl)c1)O3 | 10.7%

System: Rhesus monkey
Experiment: Antidiabetic activity in obese type 2 diabetic rhesus monkey model assessed as inhibition of blood glucose excursion at 20 mg/kg, po administered 1 to 2 hrs prior to dextrose challenge measured for 120 mins by IVGTT relative to control
Format: functional
Details: Macaca mulatta

SMILES | inhibition in vivo at 20 mg/kg
O=C(O)C[C@@H]1COc2cc3c(cc21)OC[C@@H](c1cccc(Cl)c1)O3 | 13.2%

System: Rhesus monkey
Experiment: Antidiabetic activity in obese type 2 diabetic rhesus monkey model assessed as inhibition of blood glucose excursion at 6 mg/kg, po administered 1 to 2 hrs prior to dextrose challenge measured for 60 mins by IVGTT relative to control
Format: functional
Details: Macaca mulatta

SMILES | inhibition in vivo at 6 mg/kg
O=C(O)C[C@@H]1COc2cc3c(cc21)OC[C@@H](c1cccc(Cl)c1)O3 | 7.71%

System: Rhesus monkey
Experiment: Antidiabetic activity in obese type 2 diabetic rhesus monkey model assessed as inhibition of blood glucose excursion at 20 mg/kg, po administered 1 to 2 hrs prior to dextrose challenge measured for 60 mins by IVGTT relative to control
Format: functional
Details: Macaca mulatta

SMILES | inhibition in vivo at 20 mg/kg
O=C(O)C[C@@H]1COc2cc3c(cc21)OC[C@@H](c1cccc(Cl)c1)O3 | 16.4%

Molecular target: Free fatty acid receptor 1 (Rattus norvegicus) (UniProt Q8K3T4)
Experiment: Agonist activity at GPR40 in rat INS-1 cells assessed as glucose-stimulated insulin secretion relative to TAK-875
Format: cell-based
Details: INS1

Free fatty acid receptor 1 (Rattus norvegicus), sequence (Q8K3T4 whole entry): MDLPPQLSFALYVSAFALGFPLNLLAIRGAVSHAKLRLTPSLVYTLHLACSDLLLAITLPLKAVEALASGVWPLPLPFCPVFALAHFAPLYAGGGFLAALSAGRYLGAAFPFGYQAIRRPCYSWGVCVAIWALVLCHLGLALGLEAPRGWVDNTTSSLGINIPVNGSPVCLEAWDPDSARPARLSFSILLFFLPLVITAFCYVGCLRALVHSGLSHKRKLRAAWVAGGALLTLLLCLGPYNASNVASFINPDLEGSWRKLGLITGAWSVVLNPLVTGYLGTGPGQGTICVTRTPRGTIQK

Emax | SMILES
46.8% | O=C(O)C[C@@H]1COc2cc3c(cc21)OC[C@@H](c1ccc(Cl)c(Cl)c1)O3
36.8% | O=C(O)C[C@@H]1COc2cc3c(cc21)OC[C@@H](c1cccc(Cl)c1)O3

System: not listed separately
Experiment: Cmax in cynomolgus monkey at 6 mg/kg, po
Format: ADME, organism-based, Macaca fascicularis
Parameters: dose 6 mg/kg, route oral
Details: in vivo

Cmax | SMILES
19700 ng/mL | O=C(O)C[C@@H]1COc2cc3c(cc21)OC[C@@H](c1cccc(Cl)c1)O3

System: not listed separately
Experiment: Cmax in rat at 5 mg/kg, po
Format: ADME, organism-based
Parameters: dose 5 mg/kg, route oral
Details: in vivo

Cmax | SMILES
18900 ng/mL | O=C(O)C[C@@H]1COc2cc3c(cc21)OC[C@@H](c1ccc(Cl)c(Cl)c1)O3
22000 ng/mL | O=C(O)C[C@@H]1COc2cc3c(cc21)OC[C@@H](c1cccc(Cl)c1)O3

System: not listed separately
Experiment: Cmax in beagle dog at 1 mg/kg, po
Format: ADME, organism-based, Canis lupus familiaris
Parameters: dose 1 mg/kg, route oral
Details: in vivo

Cmax | SMILES
2670 ng/mL | O=C(O)C[C@@H]1COc2cc3c(cc21)OC[C@@H](c1cccc(Cl)c1)O3

System: not listed separately
Experiment: AUC in cynomolgus monkey at 6 mg/kg, po
Format: ADME, organism-based, Macaca fascicularis
Parameters: dose 6 mg/kg, route oral
Details: plasma

AUC | SMILES
126 µg·h/mL | O=C(O)C[C@@H]1COc2cc3c(cc21)OC[C@@H](c1cccc(Cl)c1)O3

System: not listed separately
Experiment: AUC in beagle dog at 1 mg/kg, po
Format: ADME, organism-based, Canis lupus familiaris
Parameters: dose 1 mg/kg, route oral
Details: plasma

AUC | SMILES
35.6 µg·h/mL | O=C(O)C[C@@H]1COc2cc3c(cc21)OC[C@@H](c1cccc(Cl)c1)O3

System: not listed separately
Experiment: AUC in rat at 5 mg/kg, po
Format: ADME, organism-based
Parameters: dose 5 mg/kg, route oral
Details: plasma

AUC | SMILES
337 µg·h/mL | O=C(O)C[C@@H]1COc2cc3c(cc21)OC[C@@H](c1ccc(Cl)c(Cl)c1)O3
666 µg·h/mL | O=C(O)C[C@@H]1COc2cc3c(cc21)OC[C@@H](c1cccc(Cl)c1)O3

System: not listed separately
Experiment: Half life in cynomolgus monkey at 6 mg/kg, po
Format: ADME, organism-based, Macaca fascicularis
Parameters: dose 6 mg/kg, route oral
Details: in vivo

half-life | SMILES
12.9 h | O=C(O)C[C@@H]1COc2cc3c(cc21)OC[C@@H](c1cccc(Cl)c1)O3

System: not listed separately
Experiment: Half life in beagle dog at 1 mg/kg, po
Format: ADME, organism-based, Canis lupus familiaris
Parameters: dose 1 mg/kg, route oral
Details: in vivo

half-life | SMILES
21.1 h | O=C(O)C[C@@H]1COc2cc3c(cc21)OC[C@@H](c1cccc(Cl)c1)O3

System: not listed separately
Experiment: Half life in rat at 5 mg/kg, po
Format: ADME, organism-based
Parameters: dose 5 mg/kg, route oral
Details: in vivo

half-life | SMILES
13.3 h | O=C(O)C[C@@H]1COc2cc3c(cc21)OC[C@@H](c1ccc(Cl)c(Cl)c1)O3
27.5 h | O=C(O)C[C@@H]1COc2cc3c(cc21)OC[C@@H](c1cccc(Cl)c1)O3

System: Canis familiaris
Experiment: Volume of distribution in beagle dog at 1 mg/kg, po
Format: ADME, organism-based, Canis lupus familiaris
Parameters: dose 1 mg/kg, route oral
Details: in vivo

Vd | SMILES
0.71 L/kg | O=C(O)C[C@@H]1COc2cc3c(cc21)OC[C@@H](c1cccc(Cl)c1)O3

System: Cynomolgus monkey
Experiment: Volume of distribution in cynomolgus monkey at 6 mg/kg, po
Format: ADME, organism-based, Macaca fascicularis
Parameters: dose 6 mg/kg, route oral
Details: in vivo

Vd | SMILES
0.85 L/kg | O=C(O)C[C@@H]1COc2cc3c(cc21)OC[C@@H](c1cccc(Cl)c1)O3

System: Rattus norvegicus
Experiment: Volume of distribution in rat at 5 mg/kg, po
Format: ADME, organism-based
Parameters: dose 5 mg/kg, route oral
Details: in vivo

Vd | SMILES
0.25 L/kg | O=C(O)C[C@@H]1COc2cc3c(cc21)OC[C@@H](c1ccc(Cl)c(Cl)c1)O3
0.21 L/kg | O=C(O)C[C@@H]1COc2cc3c(cc21)OC[C@@H](c1cccc(Cl)c1)O3

System: not listed separately
Experiment: Plasma clearance in cynomolgus monkey at 6 mg/kg, po
Format: ADME, organism-based, Macaca fascicularis
Parameters: dose 6 mg/kg, route oral
Details: not given

CL/F | SMILES
0.833 mL/min/kg | O=C(O)C[C@@H]1COc2cc3c(cc21)OC[C@@H](c1cccc(Cl)c1)O3

System: not listed separately
Experiment: Plasma clearance in beagle dog at 1 mg/kg, po
Format: ADME, organism-based, Canis lupus familiaris
Parameters: dose 1 mg/kg, route oral
Details: not given

CL/F | SMILES
0.333 mL/min/kg | O=C(O)C[C@@H]1COc2cc3c(cc21)OC[C@@H](c1cccc(Cl)c1)O3

System: not listed separately
Experiment: Plasma clearance in rat at 5 mg/kg, po
Format: ADME, organism-based
Parameters: dose 5 mg/kg, route oral
Details: not given

CL/F | SMILES
0.167 mL/min/kg | O=C(O)C[C@@H]1COc2cc3c(cc21)OC[C@@H](c1ccc(Cl)c(Cl)c1)O3
0.0833 mL/min/kg | O=C(O)C[C@@H]1COc2cc3c(cc21)OC[C@@H](c1cccc(Cl)c1)O3

System: Mus musculus
Experiment: Antidiabetic activity in high fat feasted ICR mouse assessed as inhibition of blood glucose excursion at 50 mg/kg, po administered 15 mins prior to dextrose challenge measured for 120 mins by OGTT relative to control
Format: functional
Details: not given

SMILES | inhibition in vivo at 50 mg/kg
O=C(O)C[C@@H]1COc2cc3c(cc21)OC[C@@H](c1ccc(Cl)c(Cl)c1)O3 | 4.9%
O=C(O)C[C@@H]1COc2cc3c(cc21)OC[C@@H](c1cccc(Cl)c1)O3 | 11%

Molecular target: T3, Free fatty acid receptor 1 (Homo sapiens, UniProt O14842)
Experiment: Agonist activity at human GPR40 transfected in CHO cells by calcium flux assay relative to TAK-875
Format: functional, cell-based
Details: not given

T3 sequence (O14842 whole entry): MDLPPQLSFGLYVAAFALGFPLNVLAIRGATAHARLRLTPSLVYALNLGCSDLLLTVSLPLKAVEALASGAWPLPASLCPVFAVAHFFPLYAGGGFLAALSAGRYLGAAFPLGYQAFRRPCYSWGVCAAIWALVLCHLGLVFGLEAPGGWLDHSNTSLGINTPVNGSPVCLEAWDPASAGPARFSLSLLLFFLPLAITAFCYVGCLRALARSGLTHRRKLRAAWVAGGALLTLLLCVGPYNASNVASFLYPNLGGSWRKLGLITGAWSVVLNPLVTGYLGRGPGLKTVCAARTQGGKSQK

Emax | SMILES
129% | O=C(O)C[C@@H]1COc2cc3c(cc21)OC[C@@H](c1ccc(Cl)c(Cl)c1)O3
87% | O=C(O)C[C@@H]1COc2cc3c(cc21)OC[C@@H](c1cccc(Cl)c1)O3

Molecular target: T3, Free fatty acid receptor 1
Experiment: Agonist activity at human GPR40 transfected in CHO cells by calcium flux assay
Format: functional, cell-based
Details: not given

EC50 | SMILES
16 nM | O=C(O)C[C@@H]1COc2cc3c(cc21)OC[C@@H](c1ccc(Cl)c(Cl)c1)O3
34.2 nM | O=C(O)C[C@@H]1COc2cc3c(cc21)OC[C@@H](c1cccc(Cl)c1)O3

System: not listed separately
Experiment: Lipophilicity, log D of the compound
Format: physicochemical
Details: octanol/water

logD | SMILES
< 3 | O=C(O)C[C@@H]1COc2cc3c(cc21)OC[C@@H](c1cccc(Cl)c1)O3

System: not listed separately
Experiment: Inhibition of CYP450 (unknown origin)
Format: ADME, Homo sapiens
Details: not given

IC50 | SMILES
> 50000 nM | O=C(O)C[C@@H]1COc2cc3c(cc21)OC[C@@H](c1cccc(Cl)c1)O3

Molecular target: T4, Free fatty acid receptor 4 (Homo sapiens) (UniProt Q5NUL3)
T4 sequence (whole entry): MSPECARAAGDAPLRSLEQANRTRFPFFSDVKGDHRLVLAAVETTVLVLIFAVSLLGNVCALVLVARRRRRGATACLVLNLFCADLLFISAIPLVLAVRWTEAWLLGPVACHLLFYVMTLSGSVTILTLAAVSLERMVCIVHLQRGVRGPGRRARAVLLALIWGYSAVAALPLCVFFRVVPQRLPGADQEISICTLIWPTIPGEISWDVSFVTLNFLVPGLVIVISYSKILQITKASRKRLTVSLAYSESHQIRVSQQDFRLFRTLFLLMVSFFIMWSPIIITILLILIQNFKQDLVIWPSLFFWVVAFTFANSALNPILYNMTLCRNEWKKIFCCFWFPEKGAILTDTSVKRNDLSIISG
Experiment: Agonist activity at GPR120 (unknown origin) up to 10 uM
Details: not given

Activity | SMILES
inactive | O=C(O)C[C@@H]1COc2cc3c(cc21)OC[C@@H](c1cccc(Cl)c1)O3
